Data from ChEMBL document CHEMBL5230159, “Targeting Metalloenzymes by Boron-Containing Metal-Binding Pharmacophores” (J Med Chem, 2021).
Blank lines part the entries; values can stand above or below the molecule they belong to.

What was measured:
Arginase-1 [1] = target: T1, Arginase-1 (Rattus norvegicus, UniProt P07824); experiment: Binding affinity to rat Arg I
T1 sequence (P07824 whole entry): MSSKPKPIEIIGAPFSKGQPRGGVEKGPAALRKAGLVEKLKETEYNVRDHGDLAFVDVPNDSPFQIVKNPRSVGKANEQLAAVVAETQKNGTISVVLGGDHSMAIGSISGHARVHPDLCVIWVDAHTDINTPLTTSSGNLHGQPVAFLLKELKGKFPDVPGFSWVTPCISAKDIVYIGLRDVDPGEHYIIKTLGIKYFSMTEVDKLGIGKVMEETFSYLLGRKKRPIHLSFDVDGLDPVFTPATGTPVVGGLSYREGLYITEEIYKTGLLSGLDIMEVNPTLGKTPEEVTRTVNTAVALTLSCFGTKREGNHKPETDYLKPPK

[2] = target: T2, 3',5'-cyclic-AMP phosphodiesterase 4B (Homo sapiens, UniProt Q07343); experiment: Inhibition of human PDE4 catalytic domain expressed in Escherichia coli
Carbonic anhydrase 9 = Carbonic anhydrase 9 (Homo sapiens, UniProt Q16790); experiment: Binding affinity to human CA9 assessed as inhibition constant
Carbonic anhydrase 12 = Carbonic anhydrase 12 (Homo sapiens, UniProt O43570); experiment: Binding affinity to human CA12 assessed as inhibition constant
Arginase-1 [3] = target: T3, Arginase-1 (Homo sapiens, UniProt P05089); experiment: Inhibition of human Arg I
T3 sequence (P05089 whole entry): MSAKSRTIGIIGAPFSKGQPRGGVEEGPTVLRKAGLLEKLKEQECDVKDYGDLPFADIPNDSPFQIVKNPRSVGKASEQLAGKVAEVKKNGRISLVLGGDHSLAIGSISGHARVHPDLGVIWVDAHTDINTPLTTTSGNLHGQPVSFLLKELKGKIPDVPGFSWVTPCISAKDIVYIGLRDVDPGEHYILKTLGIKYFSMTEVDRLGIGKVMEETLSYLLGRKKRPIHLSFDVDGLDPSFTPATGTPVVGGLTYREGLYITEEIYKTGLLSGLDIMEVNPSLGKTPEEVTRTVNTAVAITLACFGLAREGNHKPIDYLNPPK

Arginase-1 [4] = target: T1, Arginase-1; experiment: Inhibition of rat liver arginase using L-arginine as substrate incubated for 10 mins followed by substrate addition by scintillation counting analysis; format: tissue-based
Carbonic anhydrase 1 = Carbonic anhydrase 1 (Homo sapiens, UniProt P00915); experiment: Binding affinity to human CA1 assessed as inhibition constant
Arginase-1 [5] = target: T3, Arginase-1; experiment: Binding affinity to human Arg I
[6] = Inhibition of beta-lactamase TEM-1 (unknown origin); set-up: species or system Bacteria
[7] = Oral bioavailability in C57BL/6 mouse at 25 to 50 mg/kg by LC-MS/MS analysis; format: ADME, organism-based; settings: in vivo, dose 25-50 mg/kg
[8] = Clearance in C57BL/6 mouse at 25 to 50 mg/kg, po by LC-MS/MS analysis; format: ADME, organism-based; settings: in vivo, dose 25-50 mg/kg
[9] = target: T2, 3',5'-cyclic-AMP phosphodiesterase 4B; experiment: Inhibition of human PDE4 catalytic domain expressed in Escherichia coli at 10 uM relative to control
Autotaxin [10] = target: T4, Autotaxin (Homo sapiens, UniProt Q13822); experiment: Inhibition of human recombinant ATX using ABTS as substrate by absorbance based analysis
[11] = Inhibition of Escherichia coli NDM-1
[12] = Inhibition of Escherichia coli IMP-1
BlaVIM-1 = BlaVIM-1 (Escherichia coli, UniProt Q8GDC1); experiment: Inhibition of Escherichia coli VIM-1
[13] = Inhibition of Escherichia coli VIM-2
[14] = target: T5, Arginase-2, mitochondrial (Homo sapiens, UniProt P78540); experiment: Binding affinity to human Arg II
T5 sequence (P78540 whole entry): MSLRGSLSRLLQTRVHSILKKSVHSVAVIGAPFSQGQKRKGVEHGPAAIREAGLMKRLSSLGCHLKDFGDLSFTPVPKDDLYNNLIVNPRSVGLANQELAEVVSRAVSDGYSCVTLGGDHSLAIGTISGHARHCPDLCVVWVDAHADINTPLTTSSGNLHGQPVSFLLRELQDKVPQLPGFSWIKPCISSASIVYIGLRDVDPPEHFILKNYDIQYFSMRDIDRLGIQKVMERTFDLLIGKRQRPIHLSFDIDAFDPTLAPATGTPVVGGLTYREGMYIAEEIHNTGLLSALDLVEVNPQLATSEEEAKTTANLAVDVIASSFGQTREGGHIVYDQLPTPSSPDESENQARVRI

Autotaxin [15] = target: T4, Autotaxin; experiment: Inhibition of human recombinant ATX

T2 sequence (Q07343 whole entry, the tested form may be a part): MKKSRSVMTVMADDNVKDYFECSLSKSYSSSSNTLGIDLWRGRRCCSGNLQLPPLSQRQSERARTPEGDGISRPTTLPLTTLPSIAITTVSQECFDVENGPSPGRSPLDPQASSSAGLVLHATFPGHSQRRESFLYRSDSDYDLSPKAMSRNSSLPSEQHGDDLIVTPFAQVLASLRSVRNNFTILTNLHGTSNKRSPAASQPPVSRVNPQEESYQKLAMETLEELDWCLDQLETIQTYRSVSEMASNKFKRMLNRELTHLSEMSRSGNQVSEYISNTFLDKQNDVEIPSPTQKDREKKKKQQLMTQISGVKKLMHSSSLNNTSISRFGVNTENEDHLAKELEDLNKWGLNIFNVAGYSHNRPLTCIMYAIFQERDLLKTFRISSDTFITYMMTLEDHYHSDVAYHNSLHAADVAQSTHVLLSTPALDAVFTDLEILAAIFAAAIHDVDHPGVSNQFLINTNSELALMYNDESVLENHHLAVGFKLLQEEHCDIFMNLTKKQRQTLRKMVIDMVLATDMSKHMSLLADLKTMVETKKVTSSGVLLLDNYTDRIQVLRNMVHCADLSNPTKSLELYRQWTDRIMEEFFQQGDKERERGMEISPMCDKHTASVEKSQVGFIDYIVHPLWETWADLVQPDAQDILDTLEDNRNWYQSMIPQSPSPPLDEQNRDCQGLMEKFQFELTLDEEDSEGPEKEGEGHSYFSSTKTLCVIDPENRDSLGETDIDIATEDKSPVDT
Carbonic anhydrase 12, sequence (O43570 whole entry): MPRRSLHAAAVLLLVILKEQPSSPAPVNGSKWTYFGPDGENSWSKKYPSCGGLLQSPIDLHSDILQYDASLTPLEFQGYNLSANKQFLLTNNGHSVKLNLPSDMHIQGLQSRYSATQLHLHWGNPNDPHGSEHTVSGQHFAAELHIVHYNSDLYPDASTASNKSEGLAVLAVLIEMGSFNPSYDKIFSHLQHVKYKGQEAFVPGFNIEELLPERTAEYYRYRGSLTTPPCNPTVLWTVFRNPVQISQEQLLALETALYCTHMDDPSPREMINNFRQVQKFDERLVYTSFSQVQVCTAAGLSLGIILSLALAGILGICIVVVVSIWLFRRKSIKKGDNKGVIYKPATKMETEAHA
Carbonic anhydrase 1, sequence (P00915 whole entry): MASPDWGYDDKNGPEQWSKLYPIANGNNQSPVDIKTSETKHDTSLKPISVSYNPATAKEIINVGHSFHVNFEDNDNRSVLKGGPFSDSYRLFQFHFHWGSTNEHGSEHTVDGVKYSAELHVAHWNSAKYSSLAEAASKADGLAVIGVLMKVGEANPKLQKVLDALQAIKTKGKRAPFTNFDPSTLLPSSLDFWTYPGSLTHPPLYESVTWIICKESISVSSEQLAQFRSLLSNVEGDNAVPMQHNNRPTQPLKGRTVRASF

Kd (Arginase-1 [1]): 30000 µM
Structure (SMILES): NC(CCCCC(=O)O)C(=O)O (stereo not drawn)

IC50 (Arginase-1 [3]): 1.45 µM
Structure (SMILES): N[C@@H](CCCCB(O)O)C(=O)O

IC50 (Arginase-1 [4]): 15 µM
Structure (SMILES): N[C@@H](CC/C=C/B(O)O)C(=O)O

Kd (Arginase-1 [5]): 60 µM
Structure (SMILES): N[C@@H](CCCC[N+](=O)[O-])C(=O)O

IC50 [6]: 0.013 µM
Structure (SMILES): CC(=O)N[C@H]1Cc2cccc(C(=O)O)c2OB1O

bioavailability [7]: 91% | CL/F [8]: 10 mL/min/kg
Structure (SMILES): C[C@H](N)C(=O)N1C[C@H](CCCB(O)O)[C@](N)(C(=O)O)C1

IC50 [11]: 0.01 µM | IC50 [12]: 2.5 µM | IC50 (BlaVIM-1): 0.0079 µM | IC50 [13]: 0.0005 µM
Structure (SMILES): NCCN[C@H]1CC[C@H](CC(=O)N[C@H]2Cc3cccc(C(=O)O)c3OB2O)CC1

Ki [14]: 0.089 µM
Structure (SMILES): OB(O)/C=C/Cc1ccccc1

IC50 (Arginase-1 [4]): 6000 µM
Structure (SMILES): NC(Cc1ccc(B(O)O)cc1)C(=O)O (stereo not drawn)

Ki (Arginase-1 [1]): 60 µM
Structure (SMILES): N[C@@H](CCCCC=O)C(=O)O

IC50 [11]: 2.04 µM | IC50 [13]: 0.051 µM
Structure (SMILES): O=C(O)c1cccc2c1OB(O)[C@@H](NC(=O)C1CCCCC1)C2

Ki (Arginase-1 [5]): 30000 µM
Structure (SMILES): Nc1nccn1CCC[C@H](N)C(=O)O

More lines, now with the values behind:

Structure (SMILES): CCOC(=O)c1ccc(Oc2ccc3c(c2)COB3O)nc1
IC50 [2]: 0.047 µM

Structure (SMILES): N#Cc1ccc(Oc2ccc3c(c2)COB3O)cc1OCCO
IC50 [2]: 0.024 µM

Structure (SMILES): N#Cc1ccc(Oc2ccc3c(c2)COB3O)nc1
IC50 [2]: 0.18 µM

Structure (SMILES): N#Cc1ccc(Oc2ccc3c(c2)COB3O)cc1 [CRISABOROLE]
IC50 [2]: 0.11 µM

Structure (SMILES): OB1OCc2ccc(NC(=S)Nc3ccc(C(F)(F)F)cc3)cc21
Ki (Carbonic anhydrase 9): 0.093 µM | Ki (Carbonic anhydrase 12): 0.071 µM

Structure (SMILES): COc1ccc(C)cc1NC(=O)Nc1ccc2c(c1)B(O)OC2
Ki (Carbonic anhydrase 9): 0.414 µM | Ki (Carbonic anhydrase 1): 0.098 µM | Ki (Carbonic anhydrase 12): 0.069 µM

Structure (SMILES): O=C(O)c1ccc(Oc2ccc3c(c2)COB3O)nc1
inhibition [9]: 5% | IC50 [2]: > 0.01 µM

Structure (SMILES): O=C1S/C(=C\c2ccc(OCc3ccccc3B(O)O)cc2)C(=O)N1Cc1ccc(F)cc1
IC50 (Autotaxin [10]): > 0.005 µM

Structure (SMILES): CCOc1nc(-c2cncc(C3COB(O)C3)c2)c(F)cc1OC (stereo not drawn)
IC50 [2]: 0.00012 µM

Structure (SMILES): CC(=O)OCCOc1cc(Oc2ccc3c(c2)COB3O)ccc1C#N
IC50 [2]: 0.0007 µM

Structure (SMILES): N#Cc1ccc(Oc2ccc3c(c2)COB3O)cc1C#N
IC50 [2]: 0.06 µM

Structure (SMILES): O=C1N=C(N2CCN(Cc3ccc(C(=O)O)cc3)CC2)S/C1=C\c1ccc(Cl)c(Cl)c1
IC50 (Autotaxin [15]): 0.025 µM
